# Values quoted from earlier work in patent US20020042084A1, “Detection of NAALADase inhibitors” (Boehringer Ingelheim Pharma KG, priority 2000, published 2002).
# Residues, ends and D or L forms follow the SMILES beside them.
# Test system: NAALADase
# Details: substrate specificity; Serval et al. 1992
row,SMILES,hydrolysis by NAALADase
1,C[C@H](N)C(=O)N[C@@H](CCC(=O)O)C(=O)O [Ala-Glu] (H-Ala-Glu-OH),not hydrolyzed
2,CC(=O)N[C@@H](CC(=O)N[C@@H](CCC(=O)O)C(=O)O)C(=O)O [β-NAAG],not hydrolyzed
3,CC(=O)NC(CC(=O)O)C(=O)NC(CCC(=O)O)C(=O)O [D-NAAG] (Ac-Asp-Glu-OH; configuration not given here),not hydrolyzed
